{"source": "patent US5336485A", "about": "“Method for protecting animals against tacrine induced cytotoxic injury using sterol compounds” (priority 1993, dated 1994)", "key": {"[1]": {"test_system": "canine hepatocytes", "assay": "EMS-induced cytotoxicity in canine hepatocytes", "type": "cell-based", "details": "25 μM, 50 mM EMS"}, "[2]": {"test_system": "L1210 leukemia cells", "assay": "Doxorubicin in L1210 leukemia bearing CDF1 mice", "type": "in vivo, mouse", "details": "alpha-TS tris salt 100 mg/kg ip", "protocol": "The experiments were conducted in accordance with NCI Protocol 1,100. FIGS. 8a-d show the experimental results obtained when male CDF1 mice (n=6) received either vehicle only or 100mg/kg body weight i.p. dose of either alpha-TS or cholesteryl succinate 20 hours prior to DOX administration. FIGS. 8a-d respectively show the results obtained when the mice received 10, 15, 20, and 25 mg DOX/kg body weight. […] FIGS. 9a-d show the experimental results obtained when male CDF1 mice ([…]) were injected (i.p.) with 10^6 murine L1210 leukemia cells followed immediately by an injection of alpha-TS tris salt (100 mg/kg, i.p.) or saline injection (vehicle), and twenty hours later (Day=0) each mouse in three of the groups was i.p. injected with 15, 20, or 25 mg DOX/kg body weight ([…]). Survival was monitored for twenty days."}, "[3]": {"test_system": "human neuroblastoma cells", "details": "10 μM; cited from earlier work"}}}
{"molecule": "Cc1c(C)c2c(c(C)c1OC(=O)CCC(=O)O)CC[C@@](C)(CCC[C@H](C)CCC[C@H](C)CCCC(C)C)O2", "note": "[alpha-TS, d-alpha-tocopheryl succinate]", "values": [{"measurement": "protection from lethal effects of EMS", "setting": "[1]", "result": "protected both rat and canine hepatocytes from the lethal effects"}, {"measurement": "survival of DOX treated tumor bearing mice (FIG. 9b)", "setting": "[2]; DOX 10 mg/kg", "result": "no effect on the survival of DOX treated animals"}, {"measurement": "survival of tumor bearing mice at higher DOX", "setting": "[2]; DOX 15 and 25 mg/kg", "result": "significant protection from DOX"}, {"measurement": "tumor cell growth", "setting": "[3]", "result": "inhibits tumor cell growth"}]}
